Laboratory results as given in article PMC9487510, “A Novel Oral GyrB/ParE Dual Binding Inhibitor Effective against Multidrug-Resistant Neisseria gonorrhoeae and Other High-Threat Pathogens” (Antimicrobial Agents and Chemotherapy, 2022).
In brackets after ≈: the same amount, converted by molar mass.

Tested on: N. gonorrhoeae clinical isolates
Assay: MIC, agar dilution (CLSI)
Format: cell-based, Neisseria gonorrhoeae

## CN(C)[C@@H]1C(O)=C(C(N)=O)C(=O)[C@@]2(O)C(O)=C3C(=O)c4c(O)cccc4[C@@](C)(O)[C@H]3C[C@@H]12 [Tet, tetracycline]
96 clinical isolates
  MIC range: 0.063 to 16 µg/mL
Neisseria gonorrhoeae
  MIC50: 1 µg/mL (≈ 2.25 µM)
  MIC90: 1 µg/mL (≈ 2.25 µM)
Neisseria gonorrhoeae, strain CDC1 (GCREF2012 016)
  MIC: 2 µg/mL (≈ 4.5 µM)
Neisseria gonorrhoeae, strain CDC2 (GCREF2012 045)
  MIC: 1 µg/mL (≈ 2.25 µM)
Neisseria gonorrhoeae, strain CDC3 (GCREF2013 013)
  MIC: 1 µg/mL (≈ 2.25 µM)
Neisseria gonorrhoeae, strain CDC4 (GCREF2013 030)
  MIC: 0.5 µg/mL (≈ 1.13 µM)
Neisseria gonorrhoeae, strain CDC5 (GCREF2012 001)
  MIC: 1 µg/mL (≈ 2.25 µM)
Neisseria gonorrhoeae, strain CDC6 (GCREF2012 002)
  MIC: 1 µg/mL (≈ 2.25 µM)
Neisseria gonorrhoeae, strain CDC8 (GCREF2012 004)
  MIC: 1 µg/mL (≈ 2.25 µM)
Neisseria gonorrhoeae, strain CDC9 (GCREF2012 005)
  MIC: 1 µg/mL (≈ 2.25 µM)
Neisseria gonorrhoeae, strain CDC10 (GCREF2012 006)
  MIC: 1 µg/mL (≈ 2.25 µM)
Neisseria gonorrhoeae, strain CDC11 (GCREF2012 007)
  MIC: 1 µg/mL (≈ 2.25 µM)
Neisseria gonorrhoeae, strain CDC12 (GCREF2012 008)
  MIC: 1 µg/mL (≈ 2.25 µM)
Neisseria gonorrhoeae, strain CDC13 (GCREF2012 009)
  MIC: 1 µg/mL (≈ 2.25 µM)
Neisseria gonorrhoeae, strain CDC14 (GCREF2012 010)
  MIC: 1 µg/mL (≈ 2.25 µM)
Neisseria gonorrhoeae, strain CDC15 (GCREF2012 011)
  MIC: 0.5 µg/mL (≈ 1.13 µM)
Neisseria gonorrhoeae, strain CDC16 (GCREF2012 012)
  MIC: 1 µg/mL (≈ 2.25 µM)
Neisseria gonorrhoeae, strain CDC18 (GCREF2012 014)
  MIC: 1 µg/mL (≈ 2.25 µM)
Neisseria gonorrhoeae, strain CDC19 (GCREF2012 015)
  MIC: 0.5 µg/mL (≈ 1.13 µM)
Neisseria gonorrhoeae, strain CDC20 (GCREF2012 017)
  MIC: 1 µg/mL (≈ 2.25 µM)
Neisseria gonorrhoeae, strain CDC21 (GCREF2012 018)
  MIC: 1 µg/mL (≈ 2.25 µM)
Neisseria gonorrhoeae, strain CDC22 (GCREF2012 019)
  MIC: 1 µg/mL (≈ 2.25 µM)
Neisseria gonorrhoeae, strain CDC23 (GCREF2012 020)
  MIC: 1 µg/mL (≈ 2.25 µM)
Neisseria gonorrhoeae, strain CDC24 (GCREF2012 021)
  MIC: 1 µg/mL (≈ 2.25 µM)
Neisseria gonorrhoeae, strain CDC25 (GCREF2012 022)
  MIC: 1 µg/mL (≈ 2.25 µM)
Neisseria gonorrhoeae, strain CDC26 (GCREF2012 023)
  MIC: 0.5 µg/mL (≈ 1.13 µM)
Neisseria gonorrhoeae, strain CDC27 (GCREF2012 024)
  MIC: 1 µg/mL (≈ 2.25 µM)
Neisseria gonorrhoeae, strain CDC28 (GCREF2012 025)
  MIC: 1 µg/mL (≈ 2.25 µM)
Neisseria gonorrhoeae, strain CDC29 (GCREF2012 026)
  MIC: 1 µg/mL (≈ 2.25 µM)
Neisseria gonorrhoeae, strain CDC30 (GCREF2012 027)
  MIC: 1 µg/mL (≈ 2.25 µM)
Neisseria gonorrhoeae, strain CDC31 (GCREF2012 028)
  MIC: 2 µg/mL (≈ 4.5 µM)
Neisseria gonorrhoeae, strain CDC32 (GCREF2012 029)
  MIC: 0.5 µg/mL (≈ 1.13 µM)
Neisseria gonorrhoeae, strain CDC33 (GCREF2012 030)
  MIC: 0.5 µg/mL (≈ 1.13 µM)
Neisseria gonorrhoeae, strain CDC34 (GCREF2012 031)
  MIC: 1 µg/mL (≈ 2.25 µM)
Neisseria gonorrhoeae, strain CDC35 (GCREF2012 032)
  MIC: 2 µg/mL (≈ 4.5 µM)
Neisseria gonorrhoeae, strain CDC36 (GCREF2012 033)
  MIC: 1 µg/mL (≈ 2.25 µM)
Neisseria gonorrhoeae, strain CDC37 (GCREF2012 034)
  MIC: 1 µg/mL (≈ 2.25 µM)
Neisseria gonorrhoeae, strain CDC38 (GCREF2012 035)
  MIC: 1 µg/mL (≈ 2.25 µM)
Neisseria gonorrhoeae, strain CDC39 (GCREF2012 036)
  MIC: 1 µg/mL (≈ 2.25 µM)
Neisseria gonorrhoeae, strain CDC40 (GCREF2012 037)
  MIC: 1 µg/mL (≈ 2.25 µM)
Neisseria gonorrhoeae, strain CDC41 (GCREF2012 038)
  MIC: 1 µg/mL (≈ 2.25 µM)
Neisseria gonorrhoeae, strain CDC42 (GCREF2012 039)
  MIC: 2 µg/mL (≈ 4.5 µM)
Neisseria gonorrhoeae, strain CDC43 (GCREF2012 040)
  MIC: 2 µg/mL (≈ 4.5 µM)
Neisseria gonorrhoeae, strain CDC45 (GCREF2012 042)
  MIC: 2 µg/mL (≈ 4.5 µM)
Neisseria gonorrhoeae, strain CDC46 (GCREF2012 043)
  MIC: 1 µg/mL (≈ 2.25 µM)
Neisseria gonorrhoeae, strain CDC47 (GCREF2012 044)
  MIC: 1 µg/mL (≈ 2.25 µM)
Neisseria gonorrhoeae, strain CDC48 (GCREF2012 046)
  MIC: 1 µg/mL (≈ 2.25 µM)
Neisseria gonorrhoeae, strain CDC49 (GCREF2012 047)
  MIC: 1 µg/mL (≈ 2.25 µM)
Neisseria gonorrhoeae, strain CDC50 (GCREF2012 048)
  MIC: 1 µg/mL (≈ 2.25 µM)
Neisseria gonorrhoeae, strain CDC51 (GCREF2012 049)
  MIC: 1 µg/mL (≈ 2.25 µM)
Neisseria gonorrhoeae, strain CDC52 (GCREF2012 050)
  MIC: 1 µg/mL (≈ 2.25 µM)
Neisseria gonorrhoeae, strain CDC53 (GCREF2012 051)
  MIC: 1 µg/mL (≈ 2.25 µM)
Neisseria gonorrhoeae, strain CDC54 (GCREF2012 052)
  MIC: 1 µg/mL (≈ 2.25 µM)
Neisseria gonorrhoeae, strain CDC55 (GCREF2013 001)
  MIC: 1 µg/mL (≈ 2.25 µM)
Neisseria gonorrhoeae, strain CDC56 (GCREF2013 002)
  MIC: 1 µg/mL (≈ 2.25 µM)
Neisseria gonorrhoeae, strain CDC57 (GCREF2013 003)
  MIC: 0.5 µg/mL (≈ 1.13 µM)
Neisseria gonorrhoeae, strain CDC58 (GCREF2013 004)
  MIC: 1 µg/mL (≈ 2.25 µM)
Neisseria gonorrhoeae, strain CDC59 (GCREF2013 044)
  MIC: 16 µg/mL (≈ 36 µM)
Neisseria gonorrhoeae, strain CDC60 (GCREF2013 005)
  MIC: 1 µg/mL (≈ 2.25 µM)
Neisseria gonorrhoeae, strain CDC61 (GCREF2013 006)
  MIC: 1 µg/mL (≈ 2.25 µM)
Neisseria gonorrhoeae, strain CDC62 (GCREF2013 007)
  MIC: 0.5 µg/mL (≈ 1.13 µM)
Neisseria gonorrhoeae, strain CDC63 (GCREF2013 008)
  MIC: 0.063 µg/mL (≈ 0.142 µM)
Neisseria gonorrhoeae, strain CDC64 (GCREF2013 009)
  MIC: 1 µg/mL (≈ 2.25 µM)
Neisseria gonorrhoeae, strain CDC65 (GCREF2013 010)
  MIC: 0.5 µg/mL (≈ 1.13 µM)
Neisseria gonorrhoeae, strain CDC66 (GCREF2013 011)
  MIC: 0.5 µg/mL (≈ 1.13 µM)
Neisseria gonorrhoeae, strain CDC67 (GCREF2013 014)
  MIC: 1 µg/mL (≈ 2.25 µM)
Neisseria gonorrhoeae, strain CDC68 (GCREF2013 016)
  MIC: 1 µg/mL (≈ 2.25 µM)
Neisseria gonorrhoeae, strain CDC69 (GCREF2013 017)
  MIC: 1 µg/mL (≈ 2.25 µM)
Neisseria gonorrhoeae, strain CDC70 (GCREF2013 018)
  MIC: 1 µg/mL (≈ 2.25 µM)
Neisseria gonorrhoeae, strain CDC71 (GCREF2013 019)
  MIC: 1 µg/mL (≈ 2.25 µM)
Neisseria gonorrhoeae, strain CDC72 (GCREF2013 020)
  MIC: 1 µg/mL (≈ 2.25 µM)
Neisseria gonorrhoeae, strain CDC73 (GCREF2013 021)
  MIC: 1 µg/mL (≈ 2.25 µM)
Neisseria gonorrhoeae, strain CDC74 (GCREF2013 022)
  MIC: 1 µg/mL (≈ 2.25 µM)
Neisseria gonorrhoeae, strain CDC75 (GCREF2013 023)
  MIC: 1 µg/mL (≈ 2.25 µM)
Neisseria gonorrhoeae, strain CDC76 (GCREF2013 024)
  MIC: 1 µg/mL (≈ 2.25 µM)
Neisseria gonorrhoeae, strain CDC77 (GCREF2013 025)
  MIC: 1 µg/mL (≈ 2.25 µM)
Neisseria gonorrhoeae, strain CDC78 (GCREF2013 026)
  MIC: 1 µg/mL (≈ 2.25 µM)
Neisseria gonorrhoeae, strain CDC79 (GCREF2013 027)
  MIC: 1 µg/mL (≈ 2.25 µM)
Neisseria gonorrhoeae, strain CDC80 (GCREF2013 028)
  MIC: 1 µg/mL (≈ 2.25 µM)
Neisseria gonorrhoeae, strain CDC81 (GCREF2013 029)
  MIC: 1 µg/mL (≈ 2.25 µM)
Neisseria gonorrhoeae, strain CDC82 (GCREF2013 031)
  MIC: 0.5 µg/mL (≈ 1.13 µM)
Neisseria gonorrhoeae, strain CDC83 (GCREF2013 032)
  MIC: 0.5 µg/mL (≈ 1.13 µM)
Neisseria gonorrhoeae, strain CDC84 (GCREF2013 033)
  MIC: 0.5 µg/mL (≈ 1.13 µM)
Neisseria gonorrhoeae, strain CDC86 (GCREF2013 035)
  MIC: 0.25 µg/mL (≈ 0.563 µM)
Neisseria gonorrhoeae, strain CDC87 (GCREF2013 036)
  MIC: 1 µg/mL (≈ 2.25 µM)
Neisseria gonorrhoeae, strain CDC88 (GCREF2013 037)
  MIC: 0.5 µg/mL (≈ 1.13 µM)
Neisseria gonorrhoeae, strain CDC89 (GCREF2013 038)
  MIC: 1 µg/mL (≈ 2.25 µM)
Neisseria gonorrhoeae, strain CDC90 (GCREF2013 039)
  MIC: 1 µg/mL (≈ 2.25 µM)
Neisseria gonorrhoeae, strain CDC91 (GCREF2013 040)
  MIC: 1 µg/mL (≈ 2.25 µM)
Neisseria gonorrhoeae, strain CDC92 (GCREF2013 041)
  MIC: 1 µg/mL (≈ 2.25 µM)
Neisseria gonorrhoeae, strain CDC93 (GCREF2013 042)
  MIC: 1 µg/mL (≈ 2.25 µM)
Neisseria gonorrhoeae, strain CDC94 (GCREF2013 043)
  MIC: 0.5 µg/mL (≈ 1.13 µM)
Neisseria gonorrhoeae, strain CDC95 (GCREF2013 045)
  MIC: 1 µg/mL (≈ 2.25 µM)
Neisseria gonorrhoeae, strain CDC96 (GCREF2013 046)
  MIC: 0.5 µg/mL (≈ 1.13 µM)
Neisseria gonorrhoeae, strain CDC97 (GCREF2013 047)
  MIC: 1 µg/mL (≈ 2.25 µM)
Neisseria gonorrhoeae, strain CDC98 (GCREF2013 048)
  MIC: 0.5 µg/mL (≈ 1.13 µM)
Neisseria gonorrhoeae, strain CDC99 (GCREF2013 012)
  MIC: 0.5 µg/mL (≈ 1.13 µM)
Neisseria gonorrhoeae, strain CDC100 (GCREF2013 015)
  MIC: 1 µg/mL (≈ 2.25 µM)
